Patent publication US20250059166A1, “PIPERIDINYLPYRIDINYLCARBONITRILE DERIVATIVES AS INHIBITORS OF GLUTAMINYL-PEPTIDE CYCLOTRANSFERASE AND GLUTAMINYL-PEPTIDE CYCLOTRANSFERASE LIKE PROTEIN” (Boehringer Ingelheim International GmbH, priority 2023, published 2025)
Where two headings read alike, the source gives them in different places.

Tests used:
[1] = test system: SIRPα signalling induced by A549 cells; experiment: Assay B: SIRPα signalling assay using A549 cells; type: cell-based; conditions: Homo sapiens
Procedure: (§1) Two cell types are independently used: the Raji cell line (lymphoblast-like human cell line derived from B lymphocytes from a Burkitt's lymphoma patient in 1963) and A549 cells (adenocarcinoma human alveolar basal epithelial cells).
(§2) Test compounds were dissolved in 100% DMSO and serially diluted into a white 384-well microtiter cell culture plate (PerkinElmer #60076780 in case of Raji assay; PDL-coated plates Greiner #781945 in case of A549 assay). 5000 Raji cells (ATCC #CC86) or 5000 A549 cells (ATCC #CCL-185) in Assay Complete Cell Plating reagent 30 (DiscoverX 93-0563R30B) were added per well. The assay plate was incubated for 48 h at 37° C., 95% humidity and 5% CO2. 15000 reporter cells (Jurkat PathHunter SIRPαV1, DiscoverX #93-1135C19) were added to each well, and the plate was incubated for 5 h at 37° C., 95% humidity and 5% CO2. Bioassay reagent 1 of the PathHunter Bioassay detection kit (DiscoverX 93-0001) was added to each well of the plate using a multichannel pipette followed by a 15 min incubation at room temperature. Afterwards bioassay reagent 2 was added followed by 60 min incubation at room temperature (incubation in the dark).
(§3) The analysis of the data was performed using the luminescence signal generated by beta-galactosidase in the PathHunter reporter cell line. The luminescence measurement was done using a Pherastar Multi-Mode Reader. Dose-response curves & IC50 data were calculated with 4-parameter sigmoidal dose response formula.

[2] = test system: SIRPα signalling induced by Raji cells; experiment: Assay B: SIRPα signalling assay using Raji cells; type: cell-based; conditions: Homo sapiens, read-out: Inhibition of SIRPα signalling induced by Raji cells: IC50
Procedure: as §1, §2, §3

[3] = Assay C: permeability in CACO-2 cells; type: in vitro ADME; conditions: human
Procedure: Caco-2 cells (1-2×10^5 cells/1 cm^2 area) are seeded on filter inserts (Costar transwell polycarbonate or PET filters, 0.4 μm pore size) and cultured (DMEM) for 10 to 25 days. Compounds are dissolved in appropriate solvent (like DMSO, 1-20 mM stock solutions). […] The transport solution (TL) is applied to the apical or basolateral donor side for measuring A-B or B-A permeability (3 filter replicates), respectively. Samples are collected at the start and end of experiment from the donor and at various time intervals for up to 2 hours also from the receiver side for concentration measurement by HPLC-MS/MS or scintillation counting. Sampled receiver volumes are replaced with fresh receiver solution.
Efflux ratio(ER)=permeabilityB−A/permeabilityA−B

QPCTL = target: T1, QPCTL (Homo sapiens, UniProt Q9NXS2); experiment: Assay A: biochemical QPCTL activity assay (MALDI-TOF MS, CD47 peptide substrate); conditions: compounds of the invention; 0.5 nM enzyme, 10 μM CD47 peptide substrate; read-out: Inhibition of QPCTL: IC50
T1 construct: made in house
Procedure: (§4) QPCT or QPCTL dependent conversion of N-terminal glutamine to pyroglutamate of CD47 was monitored via MALDI-TOF MS. Test compounds were dissolved in 100% DMSO and serially diluted into clear 1,536-well microtiter plates. Enzymatic reactions were set up in assay buffer containing 20 mM Tris pH 7.5, 0.1 mM TCEP, 0.01% BSA, and 0.001% Tween20. […] The plates were incubated for 10 min in a humidified incubator at 24° C. Subsequently, 2.5 μL of CD47 peptide substrate surrogate (^19[…]^33) was added to each well (final concentration: 10 μM for QPCTL/20 μM for QPCT). The plates were mixed for 30 sec at 1,000 rpm and subsequently incubated for 40 min in a humidified incubator at 24° C. […] The plates were sealed with an adhesive foil, mixed for 30 s at 1,000 rpm and stored at room temperature until preparation of the MALDI target plates. […] QPCT or QPCTL activity was monitored by calculating the ratio between product and internal standard signals followed by normalization to high (100% activity) and low (0% activity) controls. Determination of compound potencies was obtained by fitting the dose-response data to a four-parameter logistical equation.

QPCT = target: T2, QPCT (Homo sapiens, UniProt Q16769); experiment: Assay A: biochemical QPCT activity assay (MALDI-TOF MS, CD47 peptide substrate); conditions: compounds of the invention; 0.5 nM enzyme, 20 μM CD47 peptide substrate; read-out: Inhibition of QPCT: IC50
T2 construct: purchased Origine (so in the source)
Procedure: as §4

[4] = pH 7.2, compounds of the invention, Caco-2, permeability B-A / permeability A-B
[5] = compounds of the invention, Caco-2, apical to basolateral, pH 7.2
[6] = compounds of the invention, A549 cells 48 h, Jurkat PathHunter SIRPαV1 reporter cells 5 h, read-out: Inhibition of SIRPα signalling induced by A549 cells: IC50
[7] = compounds of the invention, Raji cells 48 h, Jurkat PathHunter SIRPαV1 reporter cells 5 h

T2 sequence (Q16769 29-361): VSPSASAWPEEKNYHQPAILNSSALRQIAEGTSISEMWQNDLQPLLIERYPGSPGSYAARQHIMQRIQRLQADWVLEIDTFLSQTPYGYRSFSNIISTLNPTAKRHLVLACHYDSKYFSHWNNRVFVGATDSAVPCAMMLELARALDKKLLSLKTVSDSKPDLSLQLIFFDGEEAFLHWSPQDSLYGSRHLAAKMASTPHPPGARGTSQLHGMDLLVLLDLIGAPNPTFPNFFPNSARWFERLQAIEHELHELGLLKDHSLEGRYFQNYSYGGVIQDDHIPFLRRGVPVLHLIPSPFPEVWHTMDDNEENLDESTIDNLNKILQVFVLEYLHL
T1 sequence (Q9NXS2 whole entry): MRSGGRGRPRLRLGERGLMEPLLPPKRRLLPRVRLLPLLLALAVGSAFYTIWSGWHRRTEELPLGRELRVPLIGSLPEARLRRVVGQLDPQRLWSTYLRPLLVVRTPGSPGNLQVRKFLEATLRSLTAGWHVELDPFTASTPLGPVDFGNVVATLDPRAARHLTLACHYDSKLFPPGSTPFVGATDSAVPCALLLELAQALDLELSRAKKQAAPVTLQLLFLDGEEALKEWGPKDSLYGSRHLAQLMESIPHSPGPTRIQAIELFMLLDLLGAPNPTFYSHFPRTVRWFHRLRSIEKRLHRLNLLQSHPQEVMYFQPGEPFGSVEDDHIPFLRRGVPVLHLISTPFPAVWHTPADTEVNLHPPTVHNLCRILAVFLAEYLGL

Row | IC50 ([1]; prior art compounds, A549 cells 48 h, Jurkat PathHunter SIRPαV1 reporter cells 5 h, read-out: Inhibition of SIRPα signalling induced by A549 cells: IC50) [nM] | IC50 ([2]; prior art compounds, Raji cells 48 h, Jurkat PathHunter SIRPαV1 reporter cells 5 h) [nM] | Papp A→B at 2 h ([3]; Caco-2, pH 7.2) [×10⁻⁶ cm/s] | efflux ratio at 2 h ([3]; Caco-2, pH 7.2) | IC50 (QPCTL) [nM] | efflux ratio at 2 h [3, 4] | Papp A→B at 2 h [3, 5] [×10⁻⁶ cm/s] | IC50 [1, 6] [nM] | IC50 (QPCT) [nM] | IC50 [2, 7] [nM] | SMILES | IC50 ([1]; A549, read-out: Inhibition of SIRPα signalling induced by A549 cells: IC50) [nM] | IC50 ([2]; Raji) [nM]
1 |  |  |  |  | 5 | 2.6 | 31 | 29 | 4 | 67 | Cn1cnnc1C1(F)CCN(c2c(C#N)cc(C(F)(F)F)nc2-c2cnc3nn(C(C)(C)C)nc3c2)CC1 [Example 8] |  | 
2 |  |  |  |  | 56 | 1.4 | 45 | 365 | 100 | 869 | Cn1cnnc1C1(F)CCN(c2c(C#N)cc(C(F)(F)F)nc2-c2cnc3nn(C(F)(F)F)nc3c2)CC1 [Example 9] |  | 
3 |  |  |  |  | 10 | 1.2 | 58 | 201 | 27 | 352 | Cn1cnnc1C1(F)CCN(c2c(C#N)cc(C(F)(F)F)nc2-c2cnc(F)cc2Cl)CC1 [Example 10] |  | 
4 |  |  |  |  | 3 | 14.9 | 4.3 | 29 | 3 | 47 | Cn1cnnc1C1(F)CCN(c2c(C#N)cc(C(F)(F)F)nc2-c2cnc3nc(C(C)(C)C)nn3c2)CC1 [Example 11] |  | 
5 |  |  |  |  | 24 | 6.9 | 4.9 | 599 | 29 | 860 | Cn1cnnc1C1(F)CCN(c2c(C#N)cc(C(F)(F)F)nc2-c2cnc3nc(C(F)(F)F)nn3c2)CC1 [Example 12] |  | 
6 |  |  |  |  | 8 | 5.7 | 3.7 | 70 | 16 | 54 | Cn1cnnc1C1CCN(c2c(C#N)cc(C(F)(F)F)nc2-c2cnc3nn(C(C)(C)C)c(C(F)(F)F)c3c2)CC1 [Example 13] |  | 
7 |  |  |  |  | 1 | 6.9 | 12 | 12 | < 1 | 21 | Cn1cnnc1C1(F)CCN(c2c(C#N)ccnc2-c2cnc3nn(C(C)(C)C)c(Cl)c3c2)CC1 [Example 14] |  | 
8 |  |  |  |  | 4 | 1.6 | 35 | 66 | 3 | 69 | Cn1cnnc1C1(F)CCN(c2c(C#N)ccnc2-c2cnc3nn(C(C)(C)C)c(C(F)(F)F)c3c2)CC1 [Example 15] |  | 
9 |  |  |  |  | 1 | 7.7 | 3.1 | 9 | 1 | 37 | Cn1cnnc1C1(F)CCN(c2c(C#N)ccnc2-c2cnc3nn(C(F)(F)F)cc3c2)CC1 [Example 16] |  | 
10 |  |  |  |  | 2 | 13.9 | 7.2 | 40 | 2 | 102 | Cn1cnnc1C1(F)CCN(c2c(C#N)ccnc2-c2cnc3nn(C(C)(C)C)nc3c2)CC1 [Example 17] |  | 
11 |  |  |  |  | 33 | 2.8 | 27 | 292 | 52 | 942 | Cn1cnnc1C1(F)CCN(c2c(C#N)ccnc2-c2cnc3nn(C(F)(F)F)nc3c2)CC1 [Example 18] |  | 
12 |  |  |  |  | 18 | 2.6 | 11 | 410 | 62 | 2190 | Cn1cnnc1C1(F)CCN(c2c(C#N)ccnc2-c2cccnc2)CC1 [Example 19] |  | 
13 |  |  |  |  | 13 | 4.5 | 14 | 615 | 35 | 1370 | Cc1cncc(-c2nccc(C#N)c2N2CCC(F)(c3nncn3C)CC2)c1 [Example 20] |  | 
14 |  |  |  |  | 1 | 2.4 | 18 | 115 | 6 | 187 | Cc1cc(F)ncc1-c1nccc(C#N)c1N1CCC(F)(c2nncn2C)CC1 [Example 21] |  | 
15 |  |  | 4.2 |  |  |  |  |  |  |  | Cn1cnnc1C1CCN(c2ncccc2-c2cccnc2)CC1 [SEN180, reference compound] |  | 

The next lines start with the compound.

Row | SMILES | IC50 ([1]; prior art compounds, A549 cells 48 h, Jurkat PathHunter SIRPαV1 reporter cells 5 h, read-out: Inhibition of SIRPα signalling induced by A549 cells: IC50) [nM] | IC50 ([2]; prior art compounds, Raji cells 48 h, Jurkat PathHunter SIRPαV1 reporter cells 5 h) [nM] | Papp A→B at 2 h ([3]; Caco-2, pH 7.2) [×10⁻⁶ cm/s] | efflux ratio at 2 h ([3]; Caco-2, pH 7.2) | IC50 (QPCTL) [nM] | efflux ratio at 2 h [3, 4] | Papp A→B at 2 h [3, 5] [×10⁻⁶ cm/s] | IC50 [1, 6] [nM] | IC50 (QPCT) [nM] | IC50 [2, 7] [nM] | IC50 ([1]; A549, read-out: Inhibition of SIRPα signalling induced by A549 cells: IC50) [nM] | IC50 ([2]; Raji) [nM]
16 | Cn1cnnc1C1CCN(S(=O)(=O)c2cccc(Nc3ccc(OCc4ccccc4)nc3)c2)CC1 [Compound 23] | > 10000 | > 10000 |  |  |  |  |  |  |  |  |  | 
17 | Nc1ncc(C2CCN(c3ncccc3-c3ccc(F)nc3)CC2)s1 [Compound 1094] |  |  | 73 | 1 |  |  |  |  |  |  |  | 
18 | Nc1nnc(C2CCN(c3ncccc3-c3ccc(F)nc3)CC2)s1 [Compound 1095] |  |  | 68 | 0.5 |  |  |  |  |  |  |  | 
19 | Cn1cnnc1C1(F)CCN(c2c(C#N)cc(C(F)(F)F)nc2-c2cnc3nn(C(C)(C)C)cc3c2)CC1 [Example 1] |  |  |  |  | 1 | 6.4 | 5.3 | 17 | 1 | 9 |  | 
20 | Cn1cnnc1C1(F)CCN(c2c(C#N)cc(C(F)(F)F)nc2-c2cnc3nn(C(C)(C)C)c(F)c3c2)CC1 [Example 2] |  |  |  |  | 1 | 4.9 | 16 | 53 | 1 | 17 |  | 
21 | Cn1cnnc1C1(F)CCN(c2c(C#N)cc(C(F)(F)F)nc2-c2cnc3nn(C(C)(C)C)c(Cl)c3c2)CC1 [Example 3] |  |  |  |  | 1 | 1 | 47 | 28 | 1 | 14 |  | 
22 | Cn1cnnc1C1(F)CCN(c2c(C#N)cc(C(F)(F)F)nc2-c2cnc3nn(C(C)(C)C)c(C(F)(F)F)c3c2)CC1 [Example 4] |  |  |  |  | 9 | 0.6 | 99.5 | 46 | 5 | 31 |  | 
23 | Cn1cnnc1C1(F)CCN(c2c(C#N)cc(C(F)(F)F)nc2-c2cnc3nn(C(F)(F)F)cc3c2)CC1 [Example 5] |  |  |  |  | 2 | 8.2 | 6.1 | 67 | 4 | 41 |  | 
24 | Cn1cnnc1C1(F)CCN(c2c(C#N)cc(C(F)(F)F)nc2-c2cnc3nn(C(C)(C)C(F)(F)F)cc3c2)CC1 [Example 6] |  |  |  |  | 2 | 10.1 | 7.2 | 50 | 2 | 26 |  | 
25 | CC(C)n1nc2ncc(-c3nc(C(F)(F)F)cc(C#N)c3N3CCC(F)(c4nncn4C)CC3)cc2c1F [Example 7] |  |  |  |  | 2 | 11.9 | 5.8 | 39 | 2 | 26 |  | 
26 | Cn1cnnc1C1CCN(c2ncccc2-c2ccc(F)nc2)CC1 [SEN177, reference compound] |  |  | 11 |  |  |  |  |  |  |  | 214 | 1360
